# Columns and labels:
# Assay in all cases: relative viability (nuclei count vs DMSO), 5 days (fraction); higher = more cells survive
# NCI-H441 = test system: NCI-H441
# Procedure, shortened: (§1)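 For relative viability, nuclei counts in treated wells were divided by those in vehicle wells. Lung cancer cell lines had been pin-tool dosed in 1536-well plates the day after seeding and cultured for 5 days, then fixed and stained in one step (final 0.05% Triton X-100, 1% formaldehyde, 1 ug/ml Hoechst) and imaged at 4×. Doses were one drug alone or a fixed anchor-drug dose plus five library-drug doses (not always all listed) in √10 steps, and values are duplicate-plate medians.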
# NCI-H1792 = test system: NCI-H1792
# Procedure, shortened: as §1
# ABC-1 = test system: ABC-1
# Procedure, shortened: as §1
# NCI-H23 = test system: NCI-H23
# Procedure, shortened: as §1
# LOU-NH91 = test system: LOU-NH91
# Procedure, shortened: as §1
# RERF-LC-KJ = test system: RERF-LC-KJ
# Procedure, shortened: as §1
# NCI-H322M = test system: NCI-H322M
# Procedure, shortened: as §1
# NCI-H2085 = test system: NCI-H2085
# Procedure, shortened: as §1
# NCI-H1355 = test system: NCI-H1355
# Procedure, shortened: as §1
# NCI-H1755 = test system: NCI-H1755
# Procedure, shortened: as §1
# NCI-H2023 = test system: NCI-H2023
# Procedure, shortened: as §1
# NCI-H2405 = test system: NCI-H2405
# Procedure, shortened: as §1
# NCI-H2170 = test system: NCI-H2170
# Procedure, shortened: as §1
# HOP-62 = test system: HOP-62
# Procedure, shortened: as §1
# NCI-H2009 = test system: NCI-H2009
# Procedure, shortened: as §1
# ChaGo-K-1 = test system: ChaGo-K-1
# Procedure, shortened: as §1
# SK-MES-1 = test system: SK-MES-1
# Procedure, shortened: as §1
# LCLC-97TM1 = test system: LCLC-97TM1
# Procedure, shortened: as §1
# NCI-H727 = test system: NCI-H727
# Procedure, shortened: as §1
# HCC-78 = test system: HCC-78
# Procedure, shortened: as §1
# NCI-H650 = test system: NCI-H650
# Procedure, shortened: as §1
# NCI-H1437 = test system: NCI-H1437
# Procedure, shortened: as §1
# UMC-11 = test system: UMC-11
# Procedure, shortened: as §1
smiles,measurement,setting,value
Cc1cnc(-c2cnc(NCCNc3ccc(C#N)cn3)nc2-c2ccc(Cl)cc2Cl)[nH]1 + CS(=O)(=O)N1CCN(Cc2cc3nc(-c4cccc5[nH]ncc45)nc(N4CCOCC4)c3s2)CC1 [Pictilisib] (partner 1 µM),relative viability,NCI-H441; first compound 0.08 µM,0.486
same,relative viability,NCI-H441; first compound 0.253 µM,0.376
same,relative viability,NCI-H441; first compound 0.8 µM,0.428
same,relative viability,NCI-H441; first compound 2.53 µM,0.553
same,relative viability,NCI-H1792; first compound 0.08 µM,0.34
same,relative viability,NCI-H1792; first compound 0.253 µM,0.268
same,relative viability,NCI-H1792; first compound 0.8 µM,0.25
same,relative viability,NCI-H1792; first compound 2.53 µM,0.385
same,relative viability,ABC-1; first compound 0.08 µM,1
same,relative viability,ABC-1; first compound 0.253 µM,0.584
same,relative viability,ABC-1; first compound 0.8 µM,0.75
same,relative viability,ABC-1; first compound 2.53 µM,0.744
same,relative viability,NCI-H23; first compound 0.08 µM,0.511
same,relative viability,NCI-H23; first compound 0.253 µM,0.56
same,relative viability,NCI-H23; first compound 0.8 µM,0.535
same,relative viability,NCI-H23; first compound 2.53 µM,0.613
same,relative viability,LOU-NH91; first compound 0.08 µM,0.532
same,relative viability,LOU-NH91; first compound 0.253 µM,0.531
same,relative viability,LOU-NH91; first compound 0.8 µM,0.504
same,relative viability,LOU-NH91; first compound 2.53 µM,0.564
same,relative viability,RERF-LC-KJ; first compound 0.08 µM,0.662
same,relative viability,RERF-LC-KJ; first compound 0.253 µM,0.496
same,relative viability,RERF-LC-KJ; first compound 0.8 µM,0.497
same,relative viability,RERF-LC-KJ; first compound 2.53 µM,0.548
same,relative viability,NCI-H322M; first compound 0.08 µM,0.59
same,relative viability,NCI-H322M; first compound 0.253 µM,0.523
same,relative viability,NCI-H322M; first compound 0.8 µM,0.413
same,relative viability,NCI-H322M; first compound 2.53 µM,0.538
same,relative viability,NCI-H2085; first compound 0.08 µM,0.551
same,relative viability,NCI-H2085; first compound 0.253 µM,0.517
same,relative viability,NCI-H2085; first compound 0.8 µM,0.455
same,relative viability,NCI-H2085; first compound 2.53 µM,0.43
same,relative viability,NCI-H1355; first compound 0.08 µM,0.442
same,relative viability,NCI-H1355; first compound 0.253 µM,0.366
same,relative viability,NCI-H1355; first compound 0.8 µM,0.399
same,relative viability,NCI-H1355; first compound 2.53 µM,0.542
same,relative viability,NCI-H1755; first compound 0.08 µM,0.507
same,relative viability,NCI-H1755; first compound 0.253 µM,0.411
same,relative viability,NCI-H1755; first compound 0.8 µM,0.386
same,relative viability,NCI-H1755; first compound 2.53 µM,0.559
same,relative viability,NCI-H2023; first compound 0.08 µM,0.334
same,relative viability,NCI-H2023; first compound 0.253 µM,0.271
same,relative viability,NCI-H2023; first compound 0.8 µM,0.307
same,relative viability,NCI-H2023; first compound 2.53 µM,0.813
same,relative viability,NCI-H2405; first compound 0.08 µM,0.472
same,relative viability,NCI-H2405; first compound 0.253 µM,0.485
same,relative viability,NCI-H2405; first compound 0.8 µM,0.422
same,relative viability,NCI-H2405; first compound 2.53 µM,0.412
same,relative viability,NCI-H2170; first compound 0.08 µM,0.29
same,relative viability,NCI-H2170; first compound 0.253 µM,0.307
same,relative viability,NCI-H2170; first compound 0.8 µM,0.261
same,relative viability,NCI-H2170; first compound 2.53 µM,0.318
same,relative viability,HOP-62; first compound 0.08 µM,0.777
same,relative viability,HOP-62; first compound 0.253 µM,0.688
same,relative viability,HOP-62; first compound 0.8 µM,0.725
same,relative viability,HOP-62; first compound 2.53 µM,0.647
same,relative viability,NCI-H2009; first compound 0.08 µM,0.877
same,relative viability,NCI-H2009; first compound 0.253 µM,0.81
same,relative viability,NCI-H2009; first compound 0.8 µM,0.814
same,relative viability,NCI-H2009; first compound 2.53 µM,0.732
same,relative viability,ChaGo-K-1; first compound 0.08 µM,0.612
same,relative viability,ChaGo-K-1; first compound 0.253 µM,0.828
same,relative viability,ChaGo-K-1; first compound 0.8 µM,0.375
same,relative viability,ChaGo-K-1; first compound 2.53 µM,0.623
same,relative viability,SK-MES-1; first compound 0.08 µM,0.406
same,relative viability,SK-MES-1; first compound 0.253 µM,0.378
same,relative viability,SK-MES-1; first compound 0.8 µM,0.38
same,relative viability,SK-MES-1; first compound 2.53 µM,0.403
same,relative viability,LCLC-97TM1; first compound 0.08 µM,0.231
same,relative viability,LCLC-97TM1; first compound 0.253 µM,0.234
same,relative viability,LCLC-97TM1; first compound 0.8 µM,0.158
same,relative viability,LCLC-97TM1; first compound 2.53 µM,0.172
same,relative viability,NCI-H727; first compound 0.08 µM,0.462
same,relative viability,NCI-H727; first compound 0.253 µM,0.259
same,relative viability,NCI-H727; first compound 0.8 µM,0.378
same,relative viability,NCI-H727; first compound 2.53 µM,0.435
same,relative viability,HCC-78; first compound 0.08 µM,0.198
same,relative viability,HCC-78; first compound 0.253 µM,0.253
same,relative viability,HCC-78; first compound 0.8 µM,0.233
same,relative viability,HCC-78; first compound 2.53 µM,0.308
same,relative viability,NCI-H650; first compound 0.08 µM,0.936
same,relative viability,NCI-H650; first compound 0.253 µM,1.03
same,relative viability,NCI-H650; first compound 0.8 µM,0.916
same,relative viability,NCI-H650; first compound 2.53 µM,0.873
same,relative viability,NCI-H1437; first compound 0.08 µM,0.521
same,relative viability,NCI-H1437; first compound 0.253 µM,0.399
same,relative viability,NCI-H1437; first compound 0.8 µM,0.483
same,relative viability,NCI-H1437; first compound 2.53 µM,0.379
same,relative viability,UMC-11; first compound 0.08 µM,0.871
same,relative viability,UMC-11; first compound 0.253 µM,0.777
same,relative viability,UMC-11; first compound 0.8 µM,0.496
same,relative viability,UMC-11; first compound 2.53 µM,0.859

# Source: the supplement of paper PMC10307832
